Where only a bound is given, the exact number is not on record here.

This passage reports IC50 results from patent publication US9611221B2, “Histone demethylase inhibitors” (CELGENE QUANTICEL RESEARCH, INC., priority 2012, dated 2017).

Assay type in all cases: biochemical
The target of one test is Jarid1A (Homo sapiens (Human), UniProt P29375). In words: Jarid1A in vitro enzyme inhibition assay (TR-FRET). Particulars: 1 nM Jarid1A, 300 nM H3K4me3-biotin peptide, 2 μM alpha-ketoglutaric acid. From the text: (§1) This assay determines the ability of a test compound to inhibit Jarid1A, Jarid1B, and JMJD2C demethylase activity. Baculovirus expressed Jarid1A (GenBank Accession #NM_001042603, AA1-1090) was purchased from BPS Bioscience (Cat#50110). Baculovirus expressed Jarid1B (GenBank Accession #NM_006618, AA 2-751) was purchased from BPS Bioscience (Cat #50121) or custom made by MolecularThroughput. Baculovirus expressed JMJD2C (GenBank Accession #BC143571, AA 2-372) was purchased from BPS Bioscience (Cat#50105).
Jarid1A, sequence (P29375 1-1090): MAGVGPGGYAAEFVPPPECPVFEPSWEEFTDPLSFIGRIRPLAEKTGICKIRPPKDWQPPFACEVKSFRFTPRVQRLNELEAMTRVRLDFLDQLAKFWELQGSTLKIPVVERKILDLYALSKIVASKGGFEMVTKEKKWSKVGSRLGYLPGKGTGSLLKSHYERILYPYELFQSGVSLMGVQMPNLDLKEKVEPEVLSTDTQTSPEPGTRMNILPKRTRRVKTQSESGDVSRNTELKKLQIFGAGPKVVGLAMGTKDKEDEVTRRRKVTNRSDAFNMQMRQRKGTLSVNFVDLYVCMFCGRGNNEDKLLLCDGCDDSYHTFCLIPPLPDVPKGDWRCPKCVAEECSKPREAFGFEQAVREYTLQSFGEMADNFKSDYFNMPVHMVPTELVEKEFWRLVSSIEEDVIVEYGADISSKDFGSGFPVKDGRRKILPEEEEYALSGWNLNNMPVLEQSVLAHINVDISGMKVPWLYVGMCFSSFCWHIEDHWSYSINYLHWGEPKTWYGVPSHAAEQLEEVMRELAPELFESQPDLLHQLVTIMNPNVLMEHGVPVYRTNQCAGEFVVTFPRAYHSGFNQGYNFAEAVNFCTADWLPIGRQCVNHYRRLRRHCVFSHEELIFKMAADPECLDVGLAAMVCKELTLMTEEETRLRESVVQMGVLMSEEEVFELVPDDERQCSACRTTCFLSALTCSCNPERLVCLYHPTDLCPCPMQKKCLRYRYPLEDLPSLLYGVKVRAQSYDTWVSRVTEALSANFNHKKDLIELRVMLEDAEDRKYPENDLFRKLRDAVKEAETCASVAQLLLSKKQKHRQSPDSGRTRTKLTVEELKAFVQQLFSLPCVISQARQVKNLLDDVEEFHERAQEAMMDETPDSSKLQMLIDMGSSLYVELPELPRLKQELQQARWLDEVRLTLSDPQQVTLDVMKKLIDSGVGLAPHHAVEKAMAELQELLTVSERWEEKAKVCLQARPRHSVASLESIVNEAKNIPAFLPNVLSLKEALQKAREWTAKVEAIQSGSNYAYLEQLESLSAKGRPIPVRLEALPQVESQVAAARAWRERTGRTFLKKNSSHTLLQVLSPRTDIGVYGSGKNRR
(§2) The enzymatic assay of Jarid1A activity is based upon Time Resolved-Fluorescence Resonance Energy Transfer (TR-FRET) detection. The ability of test compounds to inhibit the activity of Jarid1A was determined in 384-well plate format under the following reaction conditions: 1 nM Jarid1A, 300 nM H3K4me3-biotin labeled peptide (Anaspec cat #64357), 2 μM alpha-ketoglutaric acid in assay buffer of 50 mM HEPES, pH7.3, 0.005% Brij35, 0.5 mM TCEP, 0.2 mg/ml BSA, 50 μM sodium L-ascorbate, and 2 μM ammonium iron(II) sulfate. Reaction product was determined quantitatively by TR-FRET after the addition of detection reagent Phycolink Streptavidin-allophycocyanin (Prozyme) and Europium-anti-mono- or di-methylated histone H3 lysine 4 (H3K4me1-2) antibody (PerkinElmer) in the presence of 5 mM EDTA in LANCE detection buffer (PerkinElmer) at a final concentration of 25 nM and 1 nM, respectively.
(§3) The reaction mixture was incubated at room temperature for 30 minutes, and terminated by the addition of 6 μl of 5 mM EDTA in LANCE detection buffer containing 50 nM Phycolink Streptavidin-allophycocyanin and 2 nM Europium-anti-H3K4me1-2 antibody. Plates were read by EnVisionMultilabel Reader in TR-FRET mode (excitation at 320 nm, emission at 615 nm and 665 nm) after 1 hour incubation at room temperature. A ratio was calculated (665/615) for each well and fitted to determine inhibition constant (IC50).

The target of the next test is JMJD2C (Homo sapiens (Human), UniProt Q9H3R0). The test is described as follows: JMJD2C in vitro enzyme inhibition assay (TR-FRET). As to conditions: 0.3 nM JMJD2C, 300 nM H3K9me3-biotin peptide, 2 μM alpha-ketoglutaric acid.
JMJD2C, sequence (Q9H3R0 2-372): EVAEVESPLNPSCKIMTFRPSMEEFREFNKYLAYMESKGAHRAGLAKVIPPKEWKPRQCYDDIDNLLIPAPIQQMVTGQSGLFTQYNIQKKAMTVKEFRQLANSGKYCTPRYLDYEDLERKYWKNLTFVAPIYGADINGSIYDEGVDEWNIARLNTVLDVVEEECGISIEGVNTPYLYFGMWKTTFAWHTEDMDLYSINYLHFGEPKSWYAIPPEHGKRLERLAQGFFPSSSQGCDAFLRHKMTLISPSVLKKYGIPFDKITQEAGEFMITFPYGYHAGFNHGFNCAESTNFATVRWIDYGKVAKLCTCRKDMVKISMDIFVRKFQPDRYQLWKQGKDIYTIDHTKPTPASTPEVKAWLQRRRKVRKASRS
From the text: as §1
The ability of test compounds to inhibit the activity of JMJD2C was determined in 384-well plate format under the following reaction conditions: 0.3 nM JMJD2C, 300 nM H3K9me3-biotin labeled peptide (Anaspec cat #64360), 2 μM alpha-ketoglutaric acid in assay buffer of 50 mM HEPES, pH7.3, 0.005% Brij35, 0.5 mM TCEP, 0.2 mg/ml BSA, 50 μM sodium L-ascorbate, and 2 μM ammonium iron(II) sulfate. Reaction product was determined quantitatively by TR-FRET after the addition of detection reagent Phycolink Streptavidin-allophycocyanin (Prozyme) and Europium-anti-di-methylated histone H3 lysine 9 (H3K9me2) antibody (PerkinElmer) in the presence of 5 mM EDTA in LANCE detection buffer (PerkinElmer) at a final concentration of 50 nM and 1 nM, respectively.
The reaction mixture was incubated at room temperature for 30 minutes, and terminated by the addition of 6 μl of 5 mM EDTA in LANCE detection buffer containing 100 nM Phycolink Streptavidin-allophycocyanin and 2 nM Europium-anti-H3K9me2 antibody. Plates were read by EnVisionMultilabel Reader in TR-FRET mode (excitation at 320 nm, emission at 615 nm and 665 nm) after 1 hour incubation at room temperature. A ratio was calculated (665/615) for each well and fitted to determine inhibition constant (IC50).

In a further test the target is Jarid1B (Homo sapiens (Human), UniProt Q9UGL1). The test is described as follows: Jarid1B in vitro enzyme inhibition assay (TR-FRET). As to conditions: 0.8 nM Jarid1B, 300 nM H3K4me3-biotin peptide, 2 μM alpha-ketoglutaric acid.
Jarid1B, sequence (Q9UGL1 2-751): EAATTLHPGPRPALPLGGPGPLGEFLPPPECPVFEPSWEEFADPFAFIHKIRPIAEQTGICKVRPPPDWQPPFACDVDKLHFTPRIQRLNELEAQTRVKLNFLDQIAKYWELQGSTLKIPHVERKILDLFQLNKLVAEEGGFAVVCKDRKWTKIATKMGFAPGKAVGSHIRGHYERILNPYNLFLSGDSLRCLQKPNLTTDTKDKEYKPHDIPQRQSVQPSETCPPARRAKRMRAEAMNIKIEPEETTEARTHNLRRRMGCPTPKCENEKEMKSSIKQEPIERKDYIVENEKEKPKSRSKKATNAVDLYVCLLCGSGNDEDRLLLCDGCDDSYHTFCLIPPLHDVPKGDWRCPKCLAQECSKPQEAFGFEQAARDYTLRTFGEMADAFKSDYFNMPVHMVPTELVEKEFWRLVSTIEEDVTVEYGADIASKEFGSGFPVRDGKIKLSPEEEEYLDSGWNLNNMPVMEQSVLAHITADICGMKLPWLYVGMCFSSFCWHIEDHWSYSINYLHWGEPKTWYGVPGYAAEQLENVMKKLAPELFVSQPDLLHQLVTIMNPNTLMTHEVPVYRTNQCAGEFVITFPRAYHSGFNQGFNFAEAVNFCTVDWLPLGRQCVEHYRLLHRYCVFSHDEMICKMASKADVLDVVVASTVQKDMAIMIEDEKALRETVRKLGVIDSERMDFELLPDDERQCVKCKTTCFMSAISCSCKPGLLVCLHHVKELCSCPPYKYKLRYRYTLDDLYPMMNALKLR
From the text: as §1
as §2, with “The” for “The enzymatic assay of Jarid1A activity is based upon Time Resolved-Fluorescence Resonance Energy Transfer (TR-FRET) detection. The”, “of Jarid1B” for “of Jarid1A”, “conditions: 0.8” for “conditions: 1”, “nM Jarid1B,” for “nM Jarid1A,”
as §3

`N#Cc1ccc(CNc2cnccc2C(=O)O)cc1` [Example 5, 3-[(4-cyanobenzyl)amino]pyridine-4-carboxylic acid]: the half-inhibitory concentration (IC50) on Jarid1A, on JMJD2C and against Jarid1B was ≤ 100 nM in each case.
For `O=C(O)c1ccncc1NCc1ccc(C(F)(F)F)cc1` [Example 8, 3-{[4-(trifluoromethyl)benzyl]amino}pyridine-4-carboxylic acid], the IC50 against Jarid1A, against JMJD2C and on Jarid1B was ≤ 100 nM each time.
`O=C(O)c1ccncc1NCc1ccc(Cl)cc1Cl` [Example 18, 3-[(2,4-dichlorobenzyl)amino]pyridine-4-carboxylic acid]: the IC50 against Jarid1A, against JMJD2C and at Jarid1B was ≤ 100 nM each time.
Consider `COc1cc(Cl)ccc1CNc1cnccc1C(=O)O` [Example 20, 3-[(4-chloro-2-methoxybenzyl)amino]pyridine-4-carboxylic acid], for which the concentration for half-maximal inhibition (IC50) against Jarid1A is ≤ 100 nM; against JMJD2C, 100 to 1000 nM; against Jarid1B it was ≤ 100 nM.
For `O=C(O)c1ccncc1NCc1ccc(Cl)cc1O` [Example 21, 3-[(4-chloro-2-hydroxybenzyl)amino]pyridine-4-carboxylic acid], the IC50 against Jarid1A, against JMJD2C and against Jarid1B was ≤ 100 nM throughout.
As to `Nc1ccccc1CNc1cnccc1C(=O)O` [Example 22, 3-[(2-aminobenzyl)amino]pyridine-4-carboxylic acid], the IC50 against Jarid1A, against JMJD2C and against Jarid1B was ≤ 100 nM in each case.
On to `O=C(O)c1ccncc1NCc1ccc(Br)cc1` [Example 23, 3-[(4-bromobenzyl)amino]pyridine-4-carboxylic acid], for which the half-inhibitory concentration (IC50) at Jarid1A, on JMJD2C and against Jarid1B was ≤ 100 nM throughout.
Turning to `Cc1ccc(CNc2cnccc2C(=O)O)cc1` [Example 24, 3-[(4-methylbenzyl)amino]pyridine-4-carboxylic acid], the 50% inhibitory concentration (IC50) at Jarid1A, on JMJD2C and on Jarid1B was ≤ 100 nM each time.
Turning to `O=C(O)c1ccncc1NCc1ccc(C2CC2)cc1` [Example 25, 3-[(4-cyclopropylbenzyl)amino]pyridine-4-carboxylic acid], the 50% inhibitory concentration (IC50) on Jarid1A was ≤ 100 nM; against JMJD2C, 100 to 1000 nM; against Jarid1B it was ≤ 100 nM.
Consider `O=C(O)c1ccncc1NCc1ccc(Cl)cc1C1CC1` [Example 26, 3-[(4-chloro-2-cyclopropylbenzyl)amino]pyridine-4-carboxylic acid], for which the IC50 against Jarid1A is ≤ 100 nM; on JMJD2C, 100 to 1000 nM; at Jarid1B, ≤ 100 nM.
On to `O=C(O)c1ccncc1NCc1ccc(C(F)(F)F)cc1C1CC1` [Example 27, 3-{[2-cyclopropyl-4-(trifluoromethl)benzyl]amino}pyridine-4-carboxylic acid], for which the values for the IC50 against Jarid1A, on JMJD2C and at Jarid1B were ≤ 100 nM, 100 to 1000 nM and ≤ 100 nM, respectively.
`O=C(O)c1ccncc1NCc1cccc2ccccc12` [Example 28, 3-[(naphthalene-1-ylmethyl)amino]pyridine-4-carboxylic acid]: the half-inhibitory concentration (IC50) on Jarid1A, at JMJD2C and against Jarid1B was ≤ 100 nM throughout.
For the molecule `O=C(O)c1ccncc1NCc1cccc2cc[nH]c12` [Example 29, 3-[(1H-indol-7-ylmethyl)amino]pyridine-4-carboxylic acid], the IC50 at Jarid1A, at JMJD2C and against Jarid1B was ≤ 100 nM in each case.
For `Cc1cccc(CNc2cnccc2C(=O)O)c1C1CC1` [Example 30, 3-[(2-cyclopropyl-3-methylbenzyl)amino]pyridine-4-carboxylic acid], the IC50 on Jarid1A, at JMJD2C and on Jarid1B was ≤ 100 nM throughout.
In the case of `O=C(O)c1ccncc1NCc1cnccc1C1CC1` [Example 31, 3-{[(4-cyclopropylpyridin-3-yl)-methyl]amino}pyridine-4-carboxylic acid], the concentration for half-maximal inhibition (IC50) at Jarid1A, on JMJD2C and against Jarid1B was ≤ 100 nM each time.
Consider `O=C(O)c1ccncc1NCc1cccc(C(F)(F)F)c1` [Example 32, 3-{[3-(trifluoromethyl)benzyl]amino}pyridine-4-carboxylic acid], for which the concentration for half-maximal inhibition (IC50) at Jarid1A, on JMJD2C and on Jarid1B was ≤ 100 nM each time.
`O=C(O)c1ccncc1NCc1ccccc1Oc1ccccc1` [Example 33, 3-[(2-phenoxybenzyl)amino]pyridine-4-carboxylic acid]: the IC50 was ≤ 100 nM against Jarid1A, 100 to 1000 nM on JMJD2C and ≤ 100 nM at Jarid1B.
For the molecule `Cc1ccc(C2CC2)c(CNc2cnccc2C(=O)O)c1` [Example 34, 3-[(2-cyclopropyl-5-methylbenzyl)amino]pyridine-4-carboxylic acid], the IC50 was ≤ 100 nM on Jarid1A, 100 to 1000 nM at JMJD2C and ≤ 100 nM against Jarid1B.
In the case of `O=C(O)c1ccncc1NCc1cccc(OC(F)(F)F)c1` [Example 35, 3-{[3-(trifluoromethoxy)benzyl]amino}pyridine-4-carboxylic acid], the IC50 against Jarid1A, on JMJD2C and against Jarid1B was 100 to 1000 nM throughout.
Turning to `O=C(O)c1ccncc1NCc1ccccc1Nc1ccccc1` [Example 36, 3-{[2-(phenylamino)benzyl]amino}pyridine-4-carboxylic acid], the half-inhibitory concentration (IC50) was ≤ 100 nM against Jarid1A, 100 to 1000 nM on JMJD2C and ≤ 100 nM against Jarid1B.
With `O=C(O)c1ccncc1NCc1cccc(OCC2CC2)c1` [Example 37, 3-{[3-(cyclopropylmethoxy)benzyl]amino}pyridine-4-carboxylic acid], the results for the IC50 against Jarid1A, against JMJD2C and against Jarid1B were 100 to 1000 nM, 100 to 1000 nM and ≤ 100 nM, respectively.
On to `O=C(O)c1ccncc1NCc1coc2ccccc12` [Example 38, 3-[(1-benzofuran-3-ylmethyl)amino]pyridine-4-carboxylic acid], for which the half-inhibitory concentration (IC50) against Jarid1A is ≤ 100 nM; against JMJD2C it was 100 to 1000 nM; against Jarid1B it was ≤ 100 nM.
Take `Cc1ccc(CNc2cnccc2C(=O)O)o1` [Example 40, 3-{[(5-methylfuran-2-yl)methyl]amino}pyridine-4-carboxylic acid]: the IC50 against Jarid1A, on JMJD2C and on Jarid1B was ≤ 100 nM each time.
With `O=C(O)c1ccncc1NCc1cc2ccccc2o1` [Example 41, 3-[(1-benzofuran-2-ylmethyl)amino]pyridine-4-carboxylic acid], the IC50 at Jarid1A, against JMJD2C and on Jarid1B was ≤ 100 nM throughout.
For the molecule `O=C(O)c1ccncc1NCC12CC3CC(CC(C3)C1)C2` [Example 42, 3-[(adamantan-1-ylmethyl)amino]pyridine-4-carboxylic acid], the IC50 against Jarid1A is 100 to 1000 nM; on JMJD2C it was ≤ 100 nM; against Jarid1B, 100 to 1000 nM.
